# Laboratory results from ChEMBL document CHEMBL3272001, “Nuclear analogues of beta-lactam antibiotics. 4. Total synthesis of bisnorisopenicillins from beta-lactam precursors” (1978).
# Experiments:
# Format in all cases: functional
# Escherichia coli [1] = test: Antibacterial activity against Escherichia coli SK&F 12140 assessed as […]
# Klebsiella aerogenes = test: Antibacterial activity against Enterobacter aerogenes ATCC 13048 assessed as […]
# Escherichia coli [2] = test: Antibacterial activity against Escherichia coli HH 33779 assessed as […]
# Enterococcus faecalis = test: Antibacterial activity against Streptococcus faecalis HH 34358 assessed as […]
# Staphylococcus aureus = test: Antibacterial activity against Staphylococcus aureus SK&F 23390 assessed as […]
# Klebsiella pneumoniae = test: Antibacterial activity against Klebsiella pneumoniae SK&F 1200 assessed as […]
# Serratia marcescens = test: Antibacterial activity against Serratia marcescens ATCC 13880 assessed as […]
# Morganella morganii = test: Antibacterial activity against Proteus morganii 179 assessed as […]
structure (smiles),measurement,setting,value
CC(=O)OCC1=C(C(=O)O)N2C(=O)[C@@H](NC(=O)Cc3cccs3)[C@H]2SC1 [CEPHALOTHIN],MIC,Escherichia coli [1],7 µM
same,MIC,Klebsiella aerogenes,14 µM
same,MIC,Escherichia coli [2],7 µM
same,MIC,Enterococcus faecalis,14 µM
same,MIC,Staphylococcus aureus,0.2 µM
same,MIC,Klebsiella pneumoniae,3.6 µM
same,MIC,Serratia marcescens,> 453 µM
same,MIC,Morganella morganii,> 453 µM
